Target: BlaC (β-lactamase) (Mycobacterium tuberculosis, UniProt P9WKD3)
Assay type: biochemical
Conditions: read-out: KI

BlaC (β-lactamase), sequence (P9WKD3 41-307): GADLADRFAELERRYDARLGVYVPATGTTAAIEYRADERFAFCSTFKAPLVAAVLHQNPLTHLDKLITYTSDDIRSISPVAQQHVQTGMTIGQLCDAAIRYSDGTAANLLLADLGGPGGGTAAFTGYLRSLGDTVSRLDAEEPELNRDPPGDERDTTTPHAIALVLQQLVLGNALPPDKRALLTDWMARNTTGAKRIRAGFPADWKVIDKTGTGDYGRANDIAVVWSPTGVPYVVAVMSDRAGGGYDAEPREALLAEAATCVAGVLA

O=C(O)[C@H]1/C(=C/CO)O[C@@H]2CC(=O)N21 [clavulanate]
KI (inactivation): 6.3 µM
